Patent US8574831B2, “Mutational profiles in HIV-1 reverse transcriptase correlated with phenotypic drug resistance” (Virco N.V., priority 2000, dated 2013)

Tested on: HIV with mutations in the HIV protease sequence
Test: Phenotypic fold resistance to protease inhibitors, protease mutations 84A/84L/84C/54M/54L/54V in a background (Examples 8-13)
Assay type: cell-based, HIV-1
Outline: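 Recombinant-virus phenotyping: patient-derived PR/RT sequences amplified by PCR and recombined in CD4+ T cells into an HXB2 proviral clone deleted for those sequences. Chimeric viruses grown across drug concentrations; IC50 determined, and fold-resistance expressed as IC50 ratio versus wild-type susceptible laboratory HIV-1 tested in parallel.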

For `CC(C)c1nc(CN(C)C(=O)N[C@H](C(=O)N[C@@H](Cc2ccccc2)C[C@H](O)[C@H](Cc2ccccc2)NC(=O)OCc2cncs2)C(C)C)cs1` [Ritonavir, ritonavir], which “mean fold increase in resistance” value (Table 9 #1, protease genotype WT) is on record?
The value was 0.6 fold.

And the “mean fold increase in resistance” value (Table 9 #2, protease genotype 10I)?
The value was 1.15 fold.

What about the “mean fold increase in resistance” value (Table 9 #3, protease genotype 46I) of the same molecule?
Its value is 0.8 fold.

What about the “mean fold increase in resistance” value (Table 9 #4, protease genotype 46I + 84V) of the same molecule?
Its value is 4.6 fold.

What about the “mean fold increase in resistance” value (Table 9 #5, protease genotype 46I + 84A) of the same molecule?
Its value is 51.8 fold.

And the “mean fold increase in resistance” value (Table 9 #6, protease genotype 10I + 46I)?
Its value is 1.5 fold.

And the “mean fold increase in resistance” value (Table 9 #7, protease genotype 10I + 46I + 84V)?
The value was 11.9 fold.

And the “mean fold increase in resistance” value (Table 9 #8, protease genotype 10I + 46I + 84A)?
Its value is 77.3 fold.

And the “mean fold increase in resistance” value (Table 9 #9, protease genotype 10L/I + 46I + 84A)?
The value was 114 fold.

What about the “mean fold increase in resistance” value (Table 9 #10, protease genotype 10I + 46I + 84A) of the same molecule?
The value was 44.5 fold.

What about the “mean fold increase in resistance” value (Table 9 #11, protease genotype 46I + 71V) of the same molecule?
Its value is 1.4 fold.

And the “mean fold increase in resistance” value (Table 9 #12, protease genotype 46I + 71V + 84V/I)?
The value was 1.8 fold.

What about the “mean fold increase in resistance” value (Table 9 #13, protease genotype 46I + 71V + 84A) of the same molecule?
The value was 102.2 fold.

What about the “mean fold increase in resistance” value (Table 9 #14, protease genotype 10F + 46I + 71V) of the same molecule?
Its value is 4.1 fold.

What about the “mean fold increase in resistance” value (Table 9 #15, protease genotype 10I + 46I + 71V + 84V) of the same molecule?
Its value is 45.6 fold.

What about the “mean fold increase in resistance” value (Table 9 #16, protease genotype 10I + 46I + 71V + 84A) of the same molecule?
Its value is 114.9 fold.

What about the “mean fold increase in resistance” value (Table 9 #17, protease genotype 10V + 46I + 71T + 84A) of the same molecule?
The value was 91.9 fold.

And the “mean fold increase in resistance” value (Table 9 #18, protease genotype 10I + 46I + 71V + 77I)?
Its value is 1.65 fold.

What about the “mean fold increase in resistance” value (Table 9 #19, protease genotype 10I + 46I + 71V + 77I + 84V) of the same molecule?
Its value is 3.1 fold.

What about the “mean fold increase in resistance” value (Table 9 #20, protease genotype 10I + 46I + 71V + 77I + 84A) of the same molecule?
Its value is 121.3 fold.

What about the “mean fold increase in resistance” value (Table 9 #21, protease genotype 10I + 33L/I + 46I + 71V + 77V/I + 84A) of the same molecule?
The value was 38.6 fold.

And the “mean fold increase in resistance” value (Table 10 #1, protease genotype 10I + 36I + 71V)?
Its value is 1.2 fold.

What about the “mean fold increase in resistance” value (Table 10 #2, protease genotype 10I + 36I + 71I + 84V) of the same molecule?
Its value is 1.5 fold.

And the “mean fold increase in resistance” value (Table 10 #3, protease genotype 10I + 36I + 71I + 84L)?
The value was 0.8 fold.

What about the “mean fold increase in resistance” value (Table 11 #1, protease genotype WT) of the same molecule?
The value was 0.6 fold.

What about the “mean fold increase in resistance” value (Table 11 #2, protease genotype 84V) of the same molecule?
The value was 2.4 fold.

And the “mean fold increase in resistance” value (Table 11 #3, protease genotype 84C)?
Its value is 2.9 fold.

What about the “mean fold increase in resistance” value (Table 11 #4, protease genotype 10I) of the same molecule?
Its value is 1.2 fold.

And the “mean fold increase in resistance” value (Table 11 #5, protease genotype 10I + 84V)?
Its value is 6.5 fold.

What about the “mean fold increase in resistance” value (Table 11 #6, protease genotype 10I + 84C) of the same molecule?
The value was 5.4 fold.

What about the “mean fold increase in resistance” value (Table 11 #7, protease genotype 77I) of the same molecule?
Its value is 0.4 fold.

And the “mean fold increase in resistance” value (Table 11 #8, protease genotype 77I + 84V)?
Its value is 5.0 fold.

And the “mean fold increase in resistance” value (Table 11 #9, protease genotype 77I + 84C)?
The value was 2.8 fold.

What about the “mean fold increase in resistance” value (Table 11 #10, protease genotype 77I + 84C) of the same molecule?
Its value is 3.2 fold.

And the “mean fold increase in resistance” value (Table 11 #11, protease genotype 10I + 24I + 36I + 46I + 71V + 84C)?
The value was 47 fold.

And the “Fold change in IC50” value (Table 12, V19263, genotype 77I)?
The value was 0.4 fold.

What about the “Fold change in IC50” value (Table 12, V20160, genotype WT) of the same molecule?
Its value is 0.6 fold.

And the “Fold change in IC50” value (Table 12, V021667, genotype 10I)?
The value was 1.2 fold.

And the “Fold change in IC50” value (Table 12, V030496, genotype 10I + 77I)?
The value was 0.5 fold.

What about the “Fold change in IC50” value (Table 12, V048869, genotype 10I + 54M + 77I + 90M) of the same molecule?
The value was 20.0 fold.

And the “Fold change in IC50” value (Table 12, V048872, genotype 33F + 54M + 77I + 90M)?
The value was 8.7 fold.

What about the “Fold change in IC50” value (Table 12, V048873, genotype 33F + 54M + 77I + 90M) of the same molecule?
Its value is 11.4 fold.

What about the “Fold change in IC50” value (Table 12, V048877, genotype 10I + 33F + 77I + 90M) of the same molecule?
The value was 20.5 fold.

What about the “Fold change in IC50” value (Table 12, V048878, genotype 10I + 33F + 54M + 71V + 77I + 90M) of the same molecule?
The value was 17.2 fold.

And the “Fold change in IC50” value (Table 12, V048879, genotype 10I + 33F + 54M + 71V + 77I + 90M)?
Its value is 74.0 fold.

What about the “Fold change in IC50” value (Table 12, V048880, genotype 10I + 33F + 77I + 90M) of the same molecule?
Its value is 3.6 fold.

What about the “Fold change in IC50” value (Table 12, V052940, genotype 71V) of the same molecule?
Its value is 0.4 fold.

What about the “Fold change in IC50” value (Table 12, V052942, genotype 10I + 71V) of the same molecule?
The value was 0.6 fold.

And the “Fold change in IC50” value (Table 12, V052943, genotype 10I + 90M)?
The value was 1.8 fold.

What about the “Fold change in IC50” value (Table 12, V052944, genotype 10I + 90M) of the same molecule?
Its value is 1.5 fold.

And the “Fold change in IC50” value (Table 12, V052945, genotype 77I + 90M)?
The value was 1.9 fold.

And the “Fold change in IC50” value (Table 12, V052946, genotype 71V + 90M)?
Its value is 2.0 fold.

And the “Fold change in IC50” value (Table 12, V052947, genotype 10I + 77I + 90M)?
Its value is 6.9 fold.

What about the “Fold change in IC50” value (Table 12, V052948, genotype 10I + 71V + 90M) of the same molecule?
Its value is 10.5 fold.

What about the “Fold change in IC50” value (Table 12, V052949, genotype 10I + 71V + 77I + 90M) of the same molecule?
The value was 2.3 fold.

What about the “Fold change in IC50” value (Table 12, V052950, genotype 33F) of the same molecule?
The value was 1.5 fold.

And the “Fold change in IC50” value (Table 12, V052951, genotype 33F + 77I)?
The value was 0.3 fold.

And the “Fold change in IC50” value (Table 12, V052953, genotype 10I + 33F + 77I)?
The value was 1.1 fold.

What about the “Fold change in IC50” value (Table 12, V052954, genotype 33F + 77I + 90M) of the same molecule?
Its value is 2.2 fold.

And the “Fold change in IC50” value (Table 12, V052955, genotype 33F + 71V + 90M)?
The value was 77.9 fold.

What about the “Fold change in IC50” value (Table 12, V052977, genotype 10I + 33F + 54M) of the same molecule?
The value was 35.5 fold.

What about the “Fold change in IC50” value (Table 12, V052978, genotype 10I + 33F + 54M + 71V + 90M) of the same molecule?
Its value is 17.9 fold.

And the “Fold change in IC50” value (Table 12, V052979, genotype 10I + 54M)?
The value was 20.0 fold.

And the “Fold change in IC50” value (Table 12, V052980, genotype 10I + 54M + 90M)?
Its value is 4.1 fold.

And the “Fold change in IC50” value (Table 12, V052981, genotype 10I + 54M + 71V + 90M)?
The value was 9.4 fold.

What about the “Fold change in IC50” value (Table 12, V052982, genotype 10I + 54M + 71V + 77I + 90M) of the same molecule?
The value was 13.4 fold.

And the “Fold change in IC50” value (Table 12, V053832, genotype 10I + 33F)?
Its value is 2.9 fold.
